Test results as given in ChEMBL document CHEMBL6127148, “Discovery of l-Lysine Dioxalate (LH1513) as a Novel Inhibitor of Calcium Oxalate Crystallization for Hyperoxaluria” (ACS Med Chem Lett, 2024).
Activity calls are given as the source filed them. No cut-off for these calls is given here.

Columns and labels:
Calcium oxalate [1] = test: Inhibition of calcium oxalate crystallization in supersaturated solution of CaOx containing of 250 uM of CaCl2 and 250 uM of Na2C2O4 incubated for 72 hrs at pH 6.8 HEPES buffer by fluorescence-based assay
Calcium oxalate [2] = test: Inhibition of calcium oxalate crystallization in COM (010) face assessed as growth on the (121-) steps at EC50 concentration incubated for 20 min by atomic force microscopic analysis
Calcium oxalate [3] = test: Inhibition of calcium oxalate crystallization in supersaturated solution of CaOx containing of 1 mM of CaCl2 and 250 uM of Na2C2O4 incubated for 72 hrs at pH 6.8 HEPES buffer by spectrophotometric method
Calcium oxalate [4] = test: Inhibition of calcium oxalate crystallization in COM (100) face assessed as twinned with monoclinic morphology at EC50 concentration by scanning electron microscopic analysis
[5] = Oral bioavailability in Agxt-knockout C57BL/6 mouse assessed as LH1513 level in plasma at 150 micromol/kg administered as triester prodrug and measured after 4 hrs; format: ADME, organism-based; details: in vivo, at 150 µmol/kg
[6] = Drug metabolism in Agxt-knockout C57BL/6 mouse assessed as LH1513 concentration in urine at 150 micromol/kg, po administered as triester prodrug and measured after 8 hrs; format: ADME, organism-based; details: in vivo, dose 150 µmol/kg, read-out: Ct
Mus musculus = test: Anti-hyperoxaluria Agxt-knockout C57BL/6 mouse model of hyperoxaluria assessed as decrease in CaOx crystals in urine at 150 micromol/kg, po administered as triester prodrug for 6 weeks by light microscopic analysis; format: functional, organism-based; details: dose 150.0 µmol/kg
[7] = Drug excretion in Agxt-knockout C57BL/6 mouse urine at 150 micromol/kg, po measured after 8 hrs; format: ADME, organism-based; details: in vivo, dose 150 µmol/kg
Calcium oxalate [8] = test: Inhibition of calcium oxalate crystallization in COM (100) face assessed as platy morphology at EC50 concentration by scanning electron microscopic analysis
Calcium oxalate [9] = test: Inhibition of calcium oxalate crystallization in COM (100) face assessed as crystals flattened at the apexes at EC50 concentration by scanning electron microscopic analysis

SMILES	EC50 (Calcium oxalate [1]) [µM]	EC50 (Calcium oxalate [3]) [µM]	other results
NCCNC(=O)C(=O)O	112		
O=C([O-])CC(O)(CC(=O)[O-])C(=O)[O-].[Na+].[Na+].[Na+] [SODIUM CITRATE]	2500	665	inhibition (Calcium oxalate [8]): Active; inhibition (Calcium oxalate [9]): Active
CC(=O)C(=O)O [PYRUVATE SODIUM]	98.3	386	

Stronger by EC50 (Calcium oxalate [1]), values ahead:

EC50 (Calcium oxalate [1]) [µM]	EC50 (Calcium oxalate [3]) [µM]	SMILES	other results
37.9		O=C(O)C(=O)NCCNC(=O)C(=O)O	
21.7	63.8	O=C([O-])C(=O)NCCCC[C@H](NC(=O)C(=O)[O-])C(=O)[O-].[Na+].[Na+].[Na+]	inhibition (Calcium oxalate [2]): Active; inhibition (Calcium oxalate [4]): Active; F [5]: 3%; concentration [6]: ~30 µM; Activity (Mus musculus): Active; Drug excretion [7]: Active
